≈ marks a conversion by molar mass, not a printed value.
Key:
CRY2/PER2 = target: T1, CRY2/PER2 (Homo sapiens, UniProt O15055+Q49AN0); test: Modulation activity at CRY2/PER2 in human U2OS cells harboring per2-dLuc assessed as activation of per2 activity measured every 100 mins for 5 days by luciferase reporter gene assay; type: cell-based
T1 sequence (O15055 whole entry): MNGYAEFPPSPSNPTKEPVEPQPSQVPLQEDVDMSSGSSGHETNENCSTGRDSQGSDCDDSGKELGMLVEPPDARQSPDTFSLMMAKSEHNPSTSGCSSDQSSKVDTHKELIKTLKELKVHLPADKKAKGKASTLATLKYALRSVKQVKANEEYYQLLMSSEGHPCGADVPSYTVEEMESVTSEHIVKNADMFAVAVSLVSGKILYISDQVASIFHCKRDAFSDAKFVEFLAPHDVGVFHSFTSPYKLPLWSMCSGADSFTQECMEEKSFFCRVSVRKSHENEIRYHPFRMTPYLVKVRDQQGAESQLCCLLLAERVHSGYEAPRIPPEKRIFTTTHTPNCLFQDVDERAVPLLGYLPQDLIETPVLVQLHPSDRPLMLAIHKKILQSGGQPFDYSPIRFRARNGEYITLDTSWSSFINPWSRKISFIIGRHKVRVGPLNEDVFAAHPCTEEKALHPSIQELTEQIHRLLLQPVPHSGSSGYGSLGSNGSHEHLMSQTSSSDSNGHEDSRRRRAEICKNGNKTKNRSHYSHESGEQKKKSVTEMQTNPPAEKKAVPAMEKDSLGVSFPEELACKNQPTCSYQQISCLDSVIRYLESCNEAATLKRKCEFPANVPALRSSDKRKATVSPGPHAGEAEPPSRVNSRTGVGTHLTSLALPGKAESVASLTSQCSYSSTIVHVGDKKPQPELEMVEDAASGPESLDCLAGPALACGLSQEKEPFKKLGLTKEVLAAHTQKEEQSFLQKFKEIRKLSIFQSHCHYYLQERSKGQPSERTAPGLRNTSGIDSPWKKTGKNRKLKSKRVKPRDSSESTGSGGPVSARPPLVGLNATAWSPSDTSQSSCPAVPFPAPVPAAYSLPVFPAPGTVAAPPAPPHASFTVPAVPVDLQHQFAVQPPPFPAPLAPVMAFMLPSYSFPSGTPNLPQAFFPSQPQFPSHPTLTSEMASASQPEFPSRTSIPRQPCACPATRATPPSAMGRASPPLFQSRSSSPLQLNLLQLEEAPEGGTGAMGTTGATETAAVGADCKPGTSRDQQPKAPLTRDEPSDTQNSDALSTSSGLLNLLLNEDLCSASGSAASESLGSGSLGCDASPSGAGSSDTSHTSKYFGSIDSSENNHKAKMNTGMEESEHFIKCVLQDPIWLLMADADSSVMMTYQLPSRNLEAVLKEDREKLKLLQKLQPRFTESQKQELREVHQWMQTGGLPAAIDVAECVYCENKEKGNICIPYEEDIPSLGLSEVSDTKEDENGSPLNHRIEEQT
T1 sequence (Q49AN0 whole entry): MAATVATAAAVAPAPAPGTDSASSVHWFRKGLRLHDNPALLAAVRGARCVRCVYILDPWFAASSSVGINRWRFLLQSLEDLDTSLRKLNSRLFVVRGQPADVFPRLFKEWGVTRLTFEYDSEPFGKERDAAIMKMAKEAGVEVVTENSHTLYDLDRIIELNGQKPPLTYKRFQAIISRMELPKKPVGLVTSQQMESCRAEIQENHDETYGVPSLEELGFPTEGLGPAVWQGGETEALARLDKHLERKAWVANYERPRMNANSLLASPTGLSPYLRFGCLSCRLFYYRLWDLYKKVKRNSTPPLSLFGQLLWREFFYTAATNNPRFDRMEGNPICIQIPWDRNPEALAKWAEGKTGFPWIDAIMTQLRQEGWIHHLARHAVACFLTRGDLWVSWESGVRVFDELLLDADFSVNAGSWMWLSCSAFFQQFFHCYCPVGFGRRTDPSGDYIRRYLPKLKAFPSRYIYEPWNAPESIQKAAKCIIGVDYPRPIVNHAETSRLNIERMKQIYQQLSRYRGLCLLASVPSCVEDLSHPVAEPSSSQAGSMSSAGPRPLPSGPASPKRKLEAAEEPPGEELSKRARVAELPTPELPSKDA

[1] = MRT in db/db mouse at 30 mg/kg, po qd after 1 to 24 hrs; type: ADME, organism-based; details: in vivo
[2] = Kinetic solubility in simulated gastric fluid; type: physicochemical; details: read-out: Kinetic_solubility
[3] = Half life in db/db mouse at 30 mg/kg, po qd; type: ADME, organism-based; details: in vivo
Mus musculus = test: Unbound Cmax in db/db mouse at 30 mg/kg, po qd after 1 to 24 hrs; type: ADME, organism-based; details: in vivo
[4] = Total Cmax in db/db mouse at 30 mg/kg, po qd after 1 to 24 hrs; type: ADME, organism-based; design: dose 30 mg/kg, route oral; details: in vivo

Row | Compound | EC50 (CRY2/PER2) | also measured
1 | O=C1C(c2ccccc2)CCN1CC(O)Cn1c2ccc(F)cc2c2cc(F)ccc21 (stereo not drawn) | 487 nM | –
2 | CN1CCCN(CC(O)Cn2c3ccc(F)cc3c3cc(F)ccc32)C1=O (stereo not drawn) | 719 nM | MRT [1]: 3.51 h; solubility kinetic [2]: 162 µM (≈ 60.4 µg/mL); half-life [3]: 2.57 h; fCmax (Mus musculus): 0.002 µM; Cmax [4]: 63 nM
3 | CCN1CCN(CC(O)Cn2c3ccc(F)cc3c3cc(F)ccc32)C1=O (stereo not drawn) | 1060 nM | –
4 | CC1CNC(=O)N(CC(O)Cn2c3ccc(F)cc3c3cc(F)ccc32)C1 (stereo not drawn) | 833 nM | –
5 | COC1CCC(=O)N(CC(O)Cn2c3ccc(F)cc3c3cc(F)ccc32)C1 (stereo not drawn) | 397 nM | –
6 | COC1CC(=O)N(CC(O)Cn2c3ccc(F)cc3c3cc(F)ccc32)C1 (stereo not drawn) | 1140 nM | –
7 | CC1(C)CCCN(CC(O)Cn2c3ccc(F)cc3c3cc(F)ccc32)C1=O (stereo not drawn) | 463 nM | –
8 | O=C1C2CC2CN1CC(O)Cn1c2ccc(F)cc2c2cc(F)ccc21 (stereo not drawn) | 246 nM | –
9 | O=C1CCC2CC2N1CC(O)Cn1c2ccc(F)cc2c2cc(F)ccc21 (stereo not drawn) | 565 nM | –
10 | CC1CCN(CC(O)Cn2c3ccc(F)cc3c3cc(F)ccc32)C(=O)N1 (stereo not drawn) | 417 nM | –
11 | O=C1N(CC(O)Cn2c3ccc(F)cc3c3cc(F)ccc32)CCCC1(F)F (stereo not drawn) | 194 nM | –
12 | O=C1OCCN1CC(O)Cn1c2ccc(F)cc2c2cc(F)ccc21 (stereo not drawn) | 9770 nM | –
13 | COC1CCCN(CC(O)Cn2c3ccc(F)cc3c3cc(F)ccc32)C1=O (stereo not drawn) | 330 nM | MRT [1]: 2.68 h; solubility kinetic [2]: 188 µM (≈ 72.9 µg/mL); half-life [3]: 2.16 h; fCmax (Mus musculus): 0.007 µM; Cmax [4]: 235 nM
14 | O=C1COCCN1CC(O)Cn1c2ccc(F)cc2c2cc(F)ccc21 (stereo not drawn) | 447 nM | –
15 | CC(C)N1CCN(CC(O)Cn2c3ccc(F)cc3c3cc(F)ccc32)C1=O (stereo not drawn) | 605 nM | –
16 | CC1CCCN(CC(O)Cn2c3ccc(F)cc3c3cc(F)ccc32)C1=O (stereo not drawn) | 1150 nM | –
17 | O=C1C2CC2CCN1CC(O)Cn1c2ccc(F)cc2c2cc(F)ccc21 (stereo not drawn) | 167 nM | –
18 | CC1(C)CCN(CC(O)Cn2c3ccc(F)cc3c3cc(F)ccc32)C1=O (stereo not drawn) | 164 nM | –
19 | CCC1CCN(CC(O)Cn2c3ccc(F)cc3c3cc(F)ccc32)C1=O (stereo not drawn) | 417 nM | –
20 | O=C1Cc2ccccc2N1CC(O)Cn1c2ccc(F)cc2c2cc(F)ccc21 (stereo not drawn) | 3730 nM | –
21 | CC1CNC(=O)N1CC(O)Cn1c2ccc(F)cc2c2cc(F)ccc21 (stereo not drawn) | 1190 nM | –
22 | CC1CN(CC(O)Cn2c3ccc(F)cc3c3cc(F)ccc32)C(=O)N1 (stereo not drawn) | 667 nM | MRT [1]: 4.16 h; solubility kinetic [2]: 181 µM (≈ 64.9 µg/mL); half-life [3]: 2.58 h; fCmax (Mus musculus): 0.01 µM; Cmax [4]: 557 nM
23 | O=C1CC2CC2CN1CC(O)Cn1c2ccc(F)cc2c2cc(F)ccc21 (stereo not drawn) | 149 nM | –
24 | O=C1NCCCN1CC(O)Cn1c2ccc(F)cc2c2cc(F)ccc21 (stereo not drawn) | 188 nM | MRT [1]: 2.98 h; solubility kinetic [2]: 85.6 µM (≈ 30.8 µg/mL); half-life [3]: 2.39 h; fCmax (Mus musculus): 0.045 µM; Cmax [4]: 1020 nM
25 | CCN1CCCN(CC(O)Cn2c3ccc(F)cc3c3cc(F)ccc32)C1=O (stereo not drawn) | 497 nM | –
26 | CN1CCN(CC(O)Cn2c3ccc(F)cc3c3cc(F)ccc32)C1=O (stereo not drawn) | 406 nM | –
27 | CC1CCNC(=O)N1CC(O)Cn1c2ccc(F)cc2c2cc(F)ccc21 (stereo not drawn) | 742 nM | –

Row | Compound | EC50 (CRY2/PER2) | also measured
28 | CC1CCC(=O)N1CC(O)Cn1c2ccc(F)cc2c2cc(F)ccc21 (stereo not drawn) | 199 nM | –
29 | CC1CCN(CC(O)Cn2c3ccc(F)cc3c3cc(F)ccc32)C1=O (stereo not drawn) | 424 nM | –
30 | O=C1OCCCN1CC(O)Cn1c2ccc(F)cc2c2cc(F)ccc21 (stereo not drawn) | 4980 nM | –
31 | O=C1N(CC(O)Cn2c3ccc(F)cc3c3cc(F)ccc32)CCC1(F)F (stereo not drawn) | 716 nM | –
32 | CC(C)C1CCN(CC(O)Cn2c3ccc(F)cc3c3cc(F)ccc32)C1=O (stereo not drawn) | 261 nM | –
33 | COC1CNC(=O)N(CC(O)Cn2c3ccc(F)cc3c3cc(F)ccc32)C1 (stereo not drawn) | 1120 nM | –
34 | O=C1Cc2ccccc2CN1CC(O)Cn1c2ccc(F)cc2c2cc(F)ccc21 (stereo not drawn) | 15200 nM | –
35 | O=C1C2CCC(C2)N1CC(O)Cn1c2ccc(F)cc2c2cc(F)ccc21 (stereo not drawn) | 163 nM | MRT [1]: 2.92 h; solubility kinetic [2]: 168 µM (≈ 62.2 µg/mL); half-life [3]: 2.14 h; fCmax (Mus musculus): 0.01 µM; Cmax [4]: 551 nM
36 | CC(C)N1CCCN(CC(O)Cn2c3ccc(F)cc3c3cc(F)ccc32)C1=O (stereo not drawn) | 620 nM | –
37 | CC1CCCC(=O)N1CC(O)Cn1c2ccc(F)cc2c2cc(F)ccc21 (stereo not drawn) | 541 nM | –
38 | O=C1N(CC(O)Cn2c3ccc(F)cc3c3cc(F)ccc32)CCCN1c1ccccc1 (stereo not drawn) | 171 nM | –
39 | O=C1CCCN1CC(O)Cn1c2ccc(F)cc2c2cc(F)ccc21 (stereo not drawn) | 625 nM | MRT [1]: 3.32 h; solubility kinetic [2]: 148 µM (≈ 51.1 µg/mL); half-life [3]: 2.95 h; fCmax (Mus musculus): 0.011 µM; Cmax [4]: 415 nM
40 | O=C1C(c2ccccc2)CCCN1CC(O)Cn1c2ccc(F)cc2c2cc(F)ccc21 (stereo not drawn) | 547 nM | –
41 | O=C1CCc2ccccc2N1CC(O)Cn1c2ccc(F)cc2c2cc(F)ccc21 (stereo not drawn) | 7430 nM | –
42 | O=C1C(F)CCCN1CC(O)Cn1c2ccc(F)cc2c2cc(F)ccc21 (stereo not drawn) | 79 nM | –
43 | CC1CC(=O)N(CC(O)Cn2c3ccc(F)cc3c3cc(F)ccc32)C1 (stereo not drawn) | 1030 nM | –
44 | CS(=O)(=O)N(Cc1ccco1)CC(O)Cn1c2ccccc2c2ccccc21 (stereo not drawn) | 870 nM | –
45 | CCC1CCCN(CC(O)Cn2c3ccc(F)cc3c3cc(F)ccc32)C1=O (stereo not drawn) | 332 nM | –
46 | COC1CCN(CC(O)Cn2c3ccc(F)cc3c3cc(F)ccc32)C1=O (stereo not drawn) | 855 nM | –
47 | O=C1C(F)CCN1CC(O)Cn1c2ccc(F)cc2c2cc(F)ccc21 (stereo not drawn) | – | MRT [1]: 3.27 h; solubility kinetic [2]: 184 µM (≈ 66.7 µg/mL); half-life [3]: 2.97 h; fCmax (Mus musculus): 0.03 µM; Cmax [4]: 1010 nM
48 | O=C1c2ccccc2CCN1CC(O)Cn1c2ccc(F)cc2c2cc(F)ccc21 (stereo not drawn) | 1360 nM | –
49 | O=C1N(CC(O)Cn2c3ccc(F)cc3c3cc(F)ccc32)CCN1c1ccccc1 (stereo not drawn) | 528 nM | –
50 | CC(C)C1CCCN(CC(O)Cn2c3ccc(F)cc3c3cc(F)ccc32)C1=O (stereo not drawn) | 79 nM | –
51 | O=C1c2ccccc2CN1CC(O)Cn1c2ccc(F)cc2c2cc(F)ccc21 (stereo not drawn) | 1490 nM | –
52 | CC1CCN(CC(O)Cn2c3ccc(F)cc3c3cc(F)ccc32)C(=O)C1 (stereo not drawn) | 128 nM | –
53 | CC1CCC(=O)N(CC(O)Cn2c3ccc(F)cc3c3cc(F)ccc32)C1 (stereo not drawn) | 224 nM | –
54 | O=C1CCCCN1CC(O)Cn1c2ccc(F)cc2c2cc(F)ccc21 (stereo not drawn) | 192 nM | –

Source: ChEMBL document CHEMBL4184118, “Carbazole-containing amides and ureas: Discovery of cryptochrome modulators as antihyperglycemic agents” (Bioorg Med Chem Lett, 2018)
